Results: US6306899A (priority 1999, dated 2001)
Converted amounts (≈) assume the structure as drawn. “Also recorded” adds a separate entry of the source.

What was measured:
[1] = system: HBsAg; assay: microbe, parasite or virus in culture; type: cell-based, Hepatitis B virus
[2] = system: HBV; assay: microbe, parasite or virus in culture; type: cell-based, Hepatitis B virus; details: for inhibition of HBV replication / DNA level: in words
[3] = system: Yellow Fever virus; assay: microbe, parasite or virus in culture; type: cell-based
[4] = Cytotoxicity, HepG2 cell growth; type: cell-based; details: human, hepg2 cells; 3 days; read-out: Cytotoxicity (IC50) HepG2 cell
Protocol: (§1) To determine the cellular toxicity of the present compounds, the T-lymphoblastoic cell line (CEM) and the HEP-G2 cell line (parent cell line from which 2.2.15 cell line is produced) were used. Cells were subjected to varying concentrations of the drug(s) and cell numbers were determined 3 days post treatment by the method described by Chen, C-H and Cheng, Y-C, J. Biol. Chem., 264, 11934 (1989). Concentrations of the drug which would result in inhibition of cell growth were determined from the plot generated by representing cell numbers corresponding to the individual drug concentrations.

[5] = Cytotoxicity, CEM cell growth; type: cell-based; details: human, cem cells; 3 days; read-out: Cytotoxicity (IC50) CEM cell
Protocol: as §1

[6] = Solubility: saturated solution in PBS at room temperature; type: physicochemical; details: aqueous buffer
Description: 3. The symbol "*" denotes the concentration of the saturated solution in
PBS at room temperature.

[7] = system: HBsAg in HepA2 cells; assay: Suppression of HBsAg secretion in HepA2 cells, serum-free, 2 days; type: cell-based; details: Homo sapiens, HepA2, 48 h, read-out: EC50 HepA2 (50% reduction of HBsAg secretion)
Description: (§2) Biological testing results of Helioxanthin and
(§3) its derivatives for suppression of HBsAg
(§4) in HepA2 and Hep3B cells in serum-free condition for 2 days
The symbol, "*" denotes HepA2, HBV DNA stable transfected HBV dimer DNA.
(§5) The symbol, "**" denotes EC50, the concentration of tested compounds
(§6) which exerted 50% reduction of HBsAg secretion in human hepatoma cells.

[8] = system: HBsAg in Hep3B cells; assay: Suppression of HBsAg secretion in Hep3B cells, serum-free, 2 days; type: cell-based; details: Homo sapiens, 48 h, read-out: EC50 Hep3B (50% reduction of HBsAg secretion)
Description: as §2, §3, §4, §5, §6

[9] = system: HBV RNA; assay: HBV RNA level (Northern analysis); type: cell-based, Hepatitis B virus; details: in words
Protocol: The biological activity of the present compounds was assessed as described by Doong, S-L, et al., Proc. Natl. Acad. Sci. U.S.A 88, 8495-8499 (1991). The human hepatoma cell line carrying HBV (cell line designated 2.2.15) provided by Dr. G. Aces was used in the study. Price, et al., Proc. Natl. Acad. Sci. U.S.A. 86, 8541 (1989). Briefly, six day-old cultures were treated with varying concentrations of the drug in the culture medium (Minimum essential medium with Earl's salts and 10% fetal bovine serum). The drug was left in the culture medium for a period of 3 days after which period the medium was aspirated and fresh medium containing the same concentration(s) of the drug was added. […] Inhibition of the viral replication was determined by the comparison of the viral DNA from drug-treated versus control cultures not treated with the drug. In addition, supernatant obtained from the polyethylene glycol precipitation of the cell culture medium (above) was measured for the presence of two HBV antigens (HBsAg and HBeAg) using enzyme immunoassay kits from Abbott Laboratories, Inc. [HBs (rDNA) EIA and HBe (rDNA)EIA], pursuant to standard practice (FIG. 3A). RNA levels were determed using Northern analysis with cellular albumin RNA being measured as a load control to standardize the quality of the HBV RNA measurement (FIG. 3B).

[10] = system: 3TC resistant HBV (DM2); assay: Activity against 3TC resistant HBV (DM2, L526MM550V) in transfected HepG2 cells; type: cell-based, Hepatitis B virus; details: in words; for effect on 3TC resistant HBV: DM2, HepG2, 9 days
[11] = system: WT10; assay: Activity against wild-type HBV (WT10) in transfected HepG2 cells; type: cell-based, Hepatitis B virus; details: in words
[12] = system: HBV; details: background; in words; cited from earlier work

Compound | EC50 ([1]; Hepatitis B virus, 144 h, read-out: Anti-viral activity (ED50) HbsAg) [µM] | HbsAg expression inhibition ([1]; in words) | EC50 ([2]; Hepatitis B virus, 144 h) [nM] | inhibition of HBV replication / DNA level [2] | inhibition of HBV replication / DNA level ([2]; listed as helioxanthin) | EC50 ([3]; Yellow fever virus, BHK, 144 h, read-out: Anti-viral activity (ED50) YFV, plaque reduction, BHK cells, 6 days) [µM] | activity against the Yellow fever virus ([3]; in words) | CC50 at 72 h [4] [µM] | CC50 at 72 h [5] [µM] | solubility [6] [µM] | EC50 [7] [nM] | EC50 [8] [nM] | HBV RNA level [9] | HBV RNA level ([9]; listed as helioxanthin) | effect on 3TC resistant HBV [10] | effect on 3TC resistant HBV ([10]; listed as helioxanthin) | sensitivity of HBV DNA production of DM2 to 3TC ([10]; DM2) | sensitivity of HBV DNA production of WT10 to 3TC [11] | effect on HBV infection [12]
O=C1OCc2c1cc1ccc3c(c1c2-c1ccc2c(c1)OCO2)OCO3 [Compound 145, 7,8-methylenedioxy-1-(3',4'-methylenedioxyphenyl)-2-hydroxymethylnaphthalene-3-carboxylic acid lactone] | 4 | inhibit HBV replication and HbsAg expression | 1000 | selectively inhibited HBV replication; also recorded: decreased the RNA and DNA level; also recorded: the most active compound in the series tested; also recorded: inhibit HBV replication in cell culture | selectively inhibited HBV replication | 9.5 | demonstrated activity against the Yellow fever virus | 26 | 22 | 24.7 (≈ 8.6 µg/mL) | 250 | 25 | decreased the RNA and DNA level; also recorded: decrease the RNA level of HBV | decreased the RNA level | excellent anti-HBV activity even in 3TC (L(-)SddC) resistant HBV | stronger inhibition of viral replication of strains of HBV that have become resistant to 3TC | – | – | –
Nc1ccn([C@@H]2CS[C@H](CO)O2)c(=O)n1 [Compound 3TC] | – | – | – | – | – | – | – | – | – | – | – | – | – | – | – | – | resistant | sensitive | recurrence of HBV after a period of treatment
